Laboratory results reported in patent US9925198B2, “Pharmaceutical composition for preventing or treating hearing loss, comprising carbenoxolone or its pharmaceutically acceptable salts as effective compound” (AJOU UNIVERSITY INDUSTRY-ACADEMIC COOPERATION FOUNDATION, priority 2015, dated 2018).
Values joined by “and” are separate entries in the source; they are usually repeats but may differ in a detail not shown here. Equal entries are not always repeated. “Also recorded” adds a separate entry of the source. Where two headings read alike, the source gives them in different places.

Experiments:
[1] = tested on: ototoxic hearing loss induced by cisplatin; assay: Auditory brainstem response (ABR) test, hearing threshold in rats with cisplatin-induced ototoxic hearing loss; type: in vivo, SD-rat; settings: for hearing threshold (ABR) at 16 kHz / hearing threshold (ABR) at 32 kHz: measured 5 days after; for hearing threshold (ABR) at 16 kHz: tone burst 16 kHz; for hearing threshold (ABR) at 32 kHz: tone burst 32 kHz
Protocol: Auditory acuity was evaluated by performing an auditory brainstem response (ABR) test on the SD-rat before and after the drug administration. The ABR test was determines the minimum stimuli intensity (dB) that evokes the waveform of wave V by providing tone burst of 16 kHz and 32 kHz using a TDT ABR device as a hearing threshold, and the auditory acuities were measured 1 day before the drug administration and 5 days after the drug administration.

[2] = tested on: auditory outer hair cells; assay: Scanning electron microscope (SEM) analysis of cochlea, auditory outer hair cell damage; type: in vivo, SD-rat; settings: basal turn (32 kHz) and middle turn (16 kHz)
Description: Also, degrees of loss and damage on auditory cells at the basal turn (32 kHz) and the middle turn (16 kHz) in cochlea were confirmed by using a scanning electron microscope (SEM) to analyze the shape of cochlea.

[3] = tested on: auditory sensory hair cell stereocilia; assay: Phalloidin staining of auditory sensory hair cell stereocilia in cochlea; type: in vivo, SD-rat; settings: basal turn (32 kHz) and middle turn (16 kHz)
Protocol: Phalloidin staining was performed on auditory sensory hair cell stereocilia markers of the SD-rats administered with drugs by using the method described above to confirm degrees of loss or damage on auditory cells at sites of the basal turn (32 kHz) and the middle turn (16 kHz).

cisplatin-takers = settings: cited from earlier work
[4] = cisplatin 16 mg/kg i.p. once + 18α-GA 100 mg/kg daily 2 days before and after cisplatin
[5] = cisplatin 16 mg/kg + 18α-GA 100 mg/kg
[6] = cisplatin 16 mg/kg i.p. once + carbenoxolone sodium 50 mg/kg daily 2 days before and after cisplatin
[7] = cisplatin 16 mg/kg + carbenoxolone sodium 50 mg/kg, vs cisplatin alone
[8] = cisplatin alone 16 mg/kg, compared to control group

CC1(C)[C@@H](O)CC[C@]2(C)[C@H]3C(=O)C=C4[C@H]5C[C@@](C)(C(=O)O)CC[C@]5(C)CC[C@@]4(C)[C@]3(C)CC[C@@H]12 [18α-GA, 18α-glycyrrhetinic acid]
hearing thresholds compared with the cisplatin-treated group ([1]; cisplatin 16 mg/kg + 18α-GA 100 mg/kg, 16 kHz and 32 kHz): no significant difference; also recorded: did not show significant difference | hearing threshold (ABR) at 16 kHz [1, 4]: 49.3±4.8 dB and 46.2±4.1 dB | hearing threshold (ABR) at 32 kHz [1, 4]: 46.2±4.1 dB | damage prevention effect (SEM, FIG. 4) [2, 5]: not confirmed | damage prevention effect (phalloidin staining, FIG. 3) [3, 5]: not exhibited

CC1(C)[C@@H](OC(=O)CCC(=O)O)CC[C@]2(C)[C@H]3C(=O)C=C4[C@@H]5C[C@@](C)(C(=O)O)CC[C@]5(C)CC[C@@]4(C)[C@]3(C)CC[C@@H]12 [carbenoxolone sodium]
hearing threshold (ABR) at 16 kHz [1, 6]: 26.3±7.5 dB | hearing threshold (ABR) at 32 kHz [1, 6]: 28.8±4.8 dB | preservation of outer hair cells (SEM, FIG. 4) [2, 7]: significantly preserved | preservation of outer hair cells (phalloidin staining, FIG. 3) [3, 7]: significantly preserved

N.N.[Cl][Pt][Cl] [cisplatin]
auditory outer hair cell damage (SEM, FIG. 4) [2, 8]: damages on auditory outer hair cells were observed in numbers; also recorded: a number of auditory outer hair cell damages were observed | auditory impairment occurrence frequency (cisplatin-takers; children): about 50% | auditory impairment occurrence frequency (cisplatin-takers; cisplatin-takers): about 30% | stereocilia damage (phalloidin staining, FIG. 3) [3, 8]: a number of stereocilia damages were observed
